# Measurements published in patent US20240226117A1, “TREATMENT OF CONGENITAL ADRENAL HYPOPLASIA” (ReveraGen BioPharma, Inc., priority 2021, published 2024).
# Where two headings read alike, the source gives them in different places.
# Columns and labels:
# [1] = test system: DMD participants; conditions: cited from earlier work
# [2] = target: T1, mineralocorticoid receptor (Homo sapiens, UniProt P08235); conditions: background statement; cited from earlier work
# T1 sequence (P08235 1-984): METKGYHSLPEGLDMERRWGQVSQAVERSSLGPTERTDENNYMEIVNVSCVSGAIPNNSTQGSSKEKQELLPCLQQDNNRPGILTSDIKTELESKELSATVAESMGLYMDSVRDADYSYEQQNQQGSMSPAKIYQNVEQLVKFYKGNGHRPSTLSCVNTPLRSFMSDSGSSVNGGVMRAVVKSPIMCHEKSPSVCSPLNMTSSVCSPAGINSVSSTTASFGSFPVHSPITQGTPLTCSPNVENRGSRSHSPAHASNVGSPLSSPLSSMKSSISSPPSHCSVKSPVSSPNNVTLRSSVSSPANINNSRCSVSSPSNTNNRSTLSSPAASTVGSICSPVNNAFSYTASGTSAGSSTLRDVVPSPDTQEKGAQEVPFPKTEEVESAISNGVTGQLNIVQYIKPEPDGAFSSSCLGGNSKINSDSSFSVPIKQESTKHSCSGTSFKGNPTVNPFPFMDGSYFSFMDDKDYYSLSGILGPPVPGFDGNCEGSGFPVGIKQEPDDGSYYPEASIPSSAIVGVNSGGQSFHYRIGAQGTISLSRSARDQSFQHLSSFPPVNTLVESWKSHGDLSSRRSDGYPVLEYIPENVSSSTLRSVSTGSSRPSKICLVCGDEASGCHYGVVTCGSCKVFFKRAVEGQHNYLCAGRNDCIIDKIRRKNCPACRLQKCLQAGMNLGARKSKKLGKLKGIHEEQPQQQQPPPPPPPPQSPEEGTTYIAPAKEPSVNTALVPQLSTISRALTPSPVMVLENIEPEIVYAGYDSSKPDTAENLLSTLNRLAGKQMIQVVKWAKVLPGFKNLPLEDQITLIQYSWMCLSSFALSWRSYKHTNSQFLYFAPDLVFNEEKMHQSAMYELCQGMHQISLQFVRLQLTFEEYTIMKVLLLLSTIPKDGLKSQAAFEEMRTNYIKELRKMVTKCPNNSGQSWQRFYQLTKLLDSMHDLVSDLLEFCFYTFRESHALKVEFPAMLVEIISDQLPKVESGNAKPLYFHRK
# [3] = test system: DMD subjects; conditions: cited from earlier work
# [4] = test system: DMD participants; experiment: Prespecified safety evaluation: height percentile for age and BMI z-score; assay type: in vivo, human; conditions: for Mean BMI z-score, change from baseline (SD): 0.75 mg/kg/day
# Method: As with the […] comparators, group-matching criteria were prespecified in the iSAP, and 2 independent statisticians carried out the participant matching. […] There was no corresponding 12-month assessment in vamorolone-treated participants. (Assessments of vamorolone-treated trial participants were 0, 3, 6, and 18 months). Standing height and weight were assessed at each study visit. Height z-score, body mass index (BMI: kg/m^2), and BMI z-score were calculated centrally. AE reporting was done per protocol in the vamorolone trials. The current study is the first to evaluate the longer-term tolerability, efficacy, and safety of vamorolone in DMD. […] Given the variable timing of dose escalations, it was prespecified that initial analyses of drug-related efficacy and safety would be limited to those participants who had 18 months of treatment with 2.0 mg/kg/day vamorolone or more (dose group C+dose group D: n=23). Outcomes for these participants were compared to a group-matched cohort from the […] over 18 months (corticosteroid-naïve, n=19: corticosteroid-treated, n=68). Participants were matched for age and treatment period (+1 month), matching criteria were prespecified in the statistical analysis plan. Two independent statisticians carried out the matching. […] Participants in the corticosteroid-treated […] group were treated for at least 18 months, but the total duration, dose, and regimens varied. Statistical analyses were done on paired longitudinal outcome data using an analysis of covariance (ANCOVA) approach with change from baseline (VBP15-002) to month 18 (midpoint of VBP15-LTE). Baseline response and age were included as covariates. For the vamorolone-treated participants, age was calculated as (date of informed consent minus birthdate)/365.25. For the DNHS participants, age was calculated as (date of baseline visit used minus birthdate)/365.25. The baseline visit for a DNHS participant was the first visit. […] Timed function tests were analyzed as velocity scores to limit the impact of participants who could not perform the test (velocity=0). Velocity measures are variance-stabilizing transformations, suppressing extreme raw outliers from raw values in seconds; these help with distributional assumptions of the statistical models/tests used. Raw data (seconds) are also reported. Velocity scores for […] (event/second), TTRW (meters/second), and […] (event/second) were inputted as 0 at the first response missing due to inability to perform the test. All other data were observed values only, without imputation. No adjustments for multiplicity on inferential statistics were specified in the iSAP.
# [5] = test system: ambulant boys with DMD; experiment: VBP15-004 growth (height Z score); assay type: in vivo, human; conditions: prednisone 0.75 mg/kg/day
# [6] = test system: ambulant boys with DMD; conditions: male, human, in vivo, 24 weeks
# [7] = test system: ambulant boys with DMD; experiment: VBP15-004 adverse events and behavior AESIs; conditions: PDN 0.75 mg, N = 31, 24 weeks
# [8] = CINRG DNHS, deflazacort n = 94, prednisone n = 80
# [9] = Griggs et al. 2016, 12-month trial, 0.9 mg/kg/day deflazacort (n = 68), 0.75 mg/kg/day prednisone (n = 63)
# [10] = CINRG prednisone trial, daily 0.75 mg/kg/day, 12 months
# [11] = vamorolone 18-month treatment versus prednisone trial 12-month treatment, ANCOVA
compound,measurement,setting,value
"CC(=O)OCC(=O)[C@@]12N=C(C)O[C@@H]1C[C@H]1[C@@H]3CCC4=CC(=O)C=C[C@]4(C)[C@H]3[C@@H](O)C[C@@]12C [Deflazacort, deflazacort]",Incidence of physician-reported Cushingoid,[1]; [8],72%
same,Incidence of physician-reported behavior change,[1]; [8],33%
same,Incidence of physician-reported weight gain,[1]; [8],63%
same,Incidence of physician-reported Cushingoid,[1]; [9],60.3%
same,Incidence of physician-reported behavior change,[1]; [9],9%
same,Incidence of physician-reported hypertrichosis/hirsutism,[1]; [9],35%
same,Incidence of physician-reported weight gain,[1]; [9],27.9%
same,activity at the mineralocorticoid receptor,[2],agonists
same,LS Mean change in height percentiles for age,"[3]; DMD children treated with deflazacort, N = 40, 12 months treatment",−11.4
same,change in height percentile over a 12-month treatment period,"[3]; Griggs et al. 2016, DMD",−11.43 percentile
"C[C@]12C=CC(=O)C=C1CC[C@@H]1[C@@H]2C(=O)C[C@@]2(C)[C@H]1CC[C@]2(O)C(=O)CO [Prednisone, prednisone, reference compound]","Mean BMI z-score, value (SD) at 12 months of treatment",[4]; [10],1.068 (1.05)
same,"Mean height percentile for age, change from baseline (SD)",[4]; [10],−3.76 (10.44)
same,"Mean height percentile for age, value (SD) at 12 months of treatment",[4]; [10],26.14 (24.21)
same,"Mean BMI z-score, change from baseline (SD)",[4]; [10],0.459 (0.407)
same,"Mean BMI z-score, change from baseline (SD)","[4]; CINRG prednisone trial, daily 0.75 mg/kg/day, 12 months, listed as prednisone",0.46
same,"Mean BMI z-score, LS mean difference (SE)",[4]; [11],0.066 (0.193)
same,"Mean height percentile for age, LS mean difference (SE)",[4]; [11],10.37 (3.86)
same,change in height Z scores from baseline to Week 24,[5],growth deceleration
same,"clinically relevant psychiatric events, subjects",[6],19.4%
same,incidence of behavior problems,[6],32.3%
same,"moderate/severe behavior problems, subjects",[6],22.6%
same,activity at the mineralocorticoid receptor,[2],agonists
same,"Any Behavior AESI, moderate/severe: F (AE count)",[7],8
